{"source": "patent US11365204B2", "about": "“Substituted dihydrothienopyrimidines and their use as phosphodiesterase inhibitors” (UNION therapeutics A/S, priority 2017, dated 2022)", "key": {"[1]": {"biological_target": "human PDE4D catalytic domain (UniProt no. Q08499 [S380-L740]) (Homo sapiens (Human), UniProt Q08499)", "sequence (Q08499 380-740)": "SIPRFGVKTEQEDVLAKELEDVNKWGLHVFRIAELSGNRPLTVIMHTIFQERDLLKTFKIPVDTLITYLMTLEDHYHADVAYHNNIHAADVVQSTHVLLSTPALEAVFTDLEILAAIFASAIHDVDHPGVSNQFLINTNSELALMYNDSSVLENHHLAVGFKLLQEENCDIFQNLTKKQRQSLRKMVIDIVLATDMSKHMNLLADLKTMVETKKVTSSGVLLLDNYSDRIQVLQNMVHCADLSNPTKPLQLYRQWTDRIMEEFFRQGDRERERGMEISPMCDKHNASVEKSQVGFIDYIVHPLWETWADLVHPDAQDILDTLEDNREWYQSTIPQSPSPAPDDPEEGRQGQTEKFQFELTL", "test": "PDE4 assay (TR-FRET, cAMP hydrolysis)", "type": "biochemical", "conditions": "read-out: PDE4 IC50 range", "description": "The human PDE4D catalytic domain (UniProt no. Q08499 [S380-L740]) was incubated with a mixture of non-labelled cAMP (cyclic adenosine monophosphate) and fluorescein amidite (FAM) conjugated cAMP and titrated test or reference compound.\nFollowing brief incubation the enzymatic reaction was stopped by addition of binding buffer containing nanoparticles with immobilized trivalent metal ions capable of binding 1) AMP phospho groups and 2) terbium (Tb) donor fluorophores. Subsequent excitation of the Tb donor triggered time-resolved FRET to adjacent FAM acceptor molecules resulting in light emission. In the presence of a PDE4 inhibitor, AMP generation was reduced resulting in a lower fluorescence signal. The cAMP phosphodiester is not bound by the detection system.\nResults were expressed as IC50 values (nM) calculated from inhibition curves where the TR-FRET signal was normalized to Tb fluorescence intensity and the negative (DMSO vehicle) and positive (10 microM a PDE4 inhibitor reference compound) controls."}, "[2]": {"system": "Human peripheral blood mononuclear cells (PBMC)", "test": "TNF-α release from LPS-stimulated PBMC", "type": "cell-based", "conditions": "Lipopolysaccharide 1 microg/ml, 18 hours, AlphaLISA, read-out: TNF-α IC50 range", "description": "Human peripheral blood mononuclear cells (PBMC) were isolated from fresh buffy coats by density centrifugation using lymphoprep tubes (Medinor). Frozen PBMC's were washed in serum free assay buffer (RPMI1640 with 25 mM HEPES, 1% pen/strep, […] L glutamine, 0.5% human serum albumin) and living cells counted. Lipopolysaccharide (1 microg/ml; SIGMA) was added to the cells which were then transferred to 384 well tissue culture plates ([…]) containing titrated test compounds. The cells were incubated for 18 hours at 37° C. in serum free assay buffer and the level of TNFalpha in the supernatant was quantitated by AlphaLISA (PerkinElmer) by measuring fluorescence intensity at 615 nm.\nResults were expressed as IC50 values calculated from inhibition curves using as controls the secretion in LPS stimulated wells and the secretion in cells incubated with 10 microM of a PDE4 inhibitor reference compound."}}}
{"smiles": "CCN(c1nc(N2CC(OC(=O)c3cnsc3)C2)nc2c1[S+]([O-])CC2)C1CCOCC1", "note": "(stereo not shown) [Example 7, [1-[4-[Ethyl(tetrahydropyran-4-yl)amino]-5-oxido-6,7-dihydrothieno[3,2-d]pyrimidin-5-ium-2-yl]azetidin-3-yl] isothiazole-4-carboxylate]", "values": [{"measurement": "IC50", "setting": "[1]", "result": "100 to 500", "unit": "nM"}, {"measurement": "IC50", "setting": "[2]", "result": "100 to 500", "unit": "nM"}]}
{"smiles": "CCN(c1nc(N2CC(OC(=O)c3cscn3)C2)nc2c1[S+]([O-])CC2)C1CCOCC1", "note": "(stereo not shown) [Example 8, [1-[4-[Ethyl(tetrahydropyran-4-yl)amino]-5-oxido-6,7-dihydrothieno[3,2-d]pyrimidin-5-ium-2-yl]azetidin-3-yl] thiazole-4-carboxylate]", "values": [{"measurement": "IC50", "setting": "[1]", "result": "100 to 500", "unit": "nM"}, {"measurement": "IC50", "setting": "[2]", "result": "100 to 500", "unit": "nM"}]}
{"smiles": "CCCN(c1nc(N2CC(OC(=O)c3cnsc3)C2)nc2c1[S+]([O-])CC2)C1CCOCC1", "note": "(stereo not shown) [Example 9, [1-[4-[Propyl(tetrahydropyran-4-yl)amino]-5-oxido-6,7-dihydrothieno[3,2-d]pyrimidin-5-ium-2-yl]azetidin-3-yl] isothiazole-4-carboxylate]", "values": [{"measurement": "IC50", "setting": "[1]", "result": "> 500", "unit": "nM"}, {"measurement": "IC50", "setting": "[2]", "result": "> 500", "unit": "nM"}]}
{"smiles": "CCCN(c1nc(N2CC(OC(=O)c3cscn3)C2)nc2c1[S+]([O-])CC2)C1CCOCC1", "note": "(stereo not shown) [Example 10, [1-[4-[Propyl(tetrahydropyran-4-yl)amino]-5-oxido-6,7-dihydrothieno[3,2-d]pyrimidin-5-ium-2-yl]azetidin-3-yl] thiazole-4-carboxylate]", "values": [{"measurement": "IC50", "setting": "[1]", "result": "> 500", "unit": "nM"}, {"measurement": "IC50", "setting": "[2]", "result": "> 500", "unit": "nM"}]}
{"smiles": "O=C(OC1CN(c2nc3c(c(NC4CCOCC4)n2)[S@@+]([O-])CC3)C1)C1CCCC1", "note": "[Example 11, [1-[(5R)-5-oxido-4-(tetrahydropyran-4-ylamino)-6,7-dihydro-thieno[3,2-d]pyrimidin-5-ium-2-yl]azetidin-3-yl] cyclopentanecarboxylate]", "values": [{"measurement": "IC50", "setting": "[1]", "result": "< 100", "unit": "nM"}, {"measurement": "IC50", "setting": "[2]", "result": "< 100", "unit": "nM"}]}
{"smiles": "O=C(OC1CN(c2nc3c(c(NC4CCOCC4)n2)[S@@+]([O-])CC3)C1)C1CCOCC1", "note": "[Example 12, [1-[(5R)-5-oxido-4-(tetrahydropyran-4-ylamino)-6,7-dihydrothieno[3,2-d]pyrimidin-5-ium-2-yl]azetidin-3-yl] tetrahydropyran-4-carboxylate]", "values": [{"measurement": "IC50", "setting": "[1]", "result": "100 to 500", "unit": "nM"}, {"measurement": "IC50", "setting": "[2]", "result": "< 100", "unit": "nM"}]}
{"smiles": "COCCC(=O)OC1CN(c2nc3c(c(N(C)C4CCOCC4)n2)[S+]([O-])CC3)C1", "note": "(stereo not shown) [Example 13, [1-[4-[methyl(tetra-hydropyran-4-yl)amino]-5-oxido-6,7-dihydro-thieno[3,2-d]pyrimidin-5-ium-2-yl]azetidin-3-yl] 3-methoxypropanoate]", "values": [{"measurement": "IC50", "setting": "[1]", "result": "100 to 500", "unit": "nM"}, {"measurement": "IC50", "setting": "[2]", "result": "100 to 500", "unit": "nM"}]}
{"smiles": "CN(c1nc(N2CC(OC(=O)C3CC(O)C3)C2)nc2c1[S+]([O-])CC2)C1CCOCC1", "note": "(stereo not shown) [Example 14, [1-[4-[methyl(tetra-hydropyran-4-yl)amino]-5-oxido-6,7-dihydro-thieno[3,2-d]pyrimidin-5-ium-2-yl]azetidin-3-yl] 3-hydroxycyclobutane-carboxylate]", "values": [{"measurement": "IC50", "setting": "[1]", "result": "100 to 500", "unit": "nM"}, {"measurement": "IC50", "setting": "[2]", "result": "100 to 500", "unit": "nM"}]}
{"smiles": "CSCCC(=O)OC1CN(c2nc3c(c(N(C)C4CCOCC4)n2)[S+]([O-])CC3)C1", "note": "(stereo not shown) [Example 15, [1-[4-[methyl(tetra-hydropyran-4-yl)amino]-5-oxido-6,7-dihydro-thieno[3,2-d]pyrimidin-5-ium-2-yl]azetidin-3-yl] 3-methylsulfanyl-propanoate]", "values": [{"measurement": "IC50", "setting": "[1]", "result": "< 100", "unit": "nM"}, {"measurement": "IC50", "setting": "[2]", "result": "< 100", "unit": "nM"}]}
{"smiles": "CN(c1nc(N2CC(OC(=O)c3ccccc3)C2)nc2c1[S+]([O-])CC2)C1CCOCC1", "note": "(stereo not shown) [Example 16, [1-[4-[methyl(tetra-hydropyran-4-yl)amino]-5-oxido-6,7-dihydro-thieno[3,2-d]pyrimidin-5-ium-2-yl]azetidin-3-yl] benzoate]", "values": [{"measurement": "IC50", "setting": "[1]", "result": "< 100", "unit": "nM"}, {"measurement": "IC50", "setting": "[2]", "result": "< 100", "unit": "nM"}]}
{"smiles": "CN(c1nc(N2CC(OC(=O)c3ccn(C)n3)C2)nc2c1[S+]([O-])CC2)C1CCOCC1", "note": "(stereo not shown) [Example 17, [1-[4-[methyl(tetra-hydropyran-4-yl)amino]-5-oxido-6,7-dihydro-thieno[3,2-d]pyrimidin-5-ium-2-yl]azetidin-3-yl] 1-methylpyrazole-3-carboxylate]", "values": [{"measurement": "IC50", "setting": "[1]", "result": "< 100", "unit": "nM"}, {"measurement": "IC50", "setting": "[2]", "result": "< 100", "unit": "nM"}]}
